{"source": "patent US6500864B1", "about": "“Disulfide derivatives useful for treating allergic diseases” (Alcon Universal Ltd., priority 2000, dated 2002)", "tested_on": "human conjunctival tissue mast cells", "assay": "Inhibition of anti-human IgE induced histamine release from human conjunctival tissue mast cells (HCTMC), histamine by RIA", "type": "cell-based", "conditions": "Mast cell, bracketed value, equals the mean of the four single determinations in the same cell, read-out: IC50 (nM), value in square brackets", "protocol": "Methods detailing preparation of monodispersed HCTMC and mediator release studies with these cells have been described (U.S. Pat. No. 5,360,720 and Miller et al, Ocular Immunology and Inflammation, 4(1):39-49 (1996)). Briefly, human conjunctival tissue mast cells were isolated from post-mortem tissue donors obtained within 8 hours of death by various eye banks and transported in Dexsol® corneal preservation medium, or equivalent. Tissues were enzymatically digested by repeated exposure (30 min. at 37° C.) to collagenase and hyaluronidase (2× with 200 U each/gram tissue, then 2-4× with 2000 U each/gram tissue) in Tyrode's buffer containing 0.1% gelatin. (Tyrode's buffer (in mM): 137 NaCl, 2.7 KCl, 0.35 NaH2PO4, 1.8 CaCl2, 0.98 MgCl2, 11.9 NaHCO3, and 5.5 glucose). […]\nCells were harvested from the culture plate and counted for viability (trypan blue exclusion) and mast cell number (toluidine blue O). […] Supernatants were stored at −20° C. until analyzed for histamine content by RIA (Beckman Coulter, Chicago, Ill.). […]\nInhibition of histamine release was determined by direct comparison of with anti-IgE challenged mast cells using Dunnett's t-test (Dunnett, “A multiple comparison procedure for comparing treatments with a control”, J. Amer. Stat. Assoc. (1955), 50:1096-1121).", "data": [{"smiles": "C=CCNC(=O)Nc1ccccc1SSc1ccccc1NC(=O)NCC=C", "note": "[Compound 1]", "values": [{"measurement": "IC50", "value": 194, "unit": "nM"}]}]}
